Patent US20250213555A1, “SUBSTITUTED TETRAHYDROFURAN ANALOGS AS MODULATORS OF SODIUM CHANNELS” (VERTEX PHARMACEUTICALS INCORPORATED, priority 2021, published 2025)
Where two headings read alike, the source gives them in different places.

Target: human Nav 1.8 (Homo sapiens, UniProt Q9Y5Y9)
Assay: E-VIPR assay detecting and measuring Nav inhibition properties
Format: cell-based
Details: HEK cells expressing a truncated form of human Nav 1.8, read-out: measured IC50 value in the E-VIPR Assay
From the text: E-VIPR Assay Detecting and Measuring Nav Inhibition Properties
Sodium ion channels are voltage-dependent proteins that can be activated by inducing membrane voltage changes by applying electric fields. The electrical stimulation instrument and methods of use, referred to as E-VIPR, are described in International Publication No. WO 2002/008748 A3 and C.-J. Huang et al. Characterization of voltage-gated sodium channel blockers by electrical stimulation and fluorescence detection of membrane potential, 24 Nature Biotech. 439-46 (2006), both of which are incorporated by reference in their entirety. The instrument comprises a microtiter plate handler, an optical system for exciting the coumarin dye while simultaneously recording the coumarin and oxonol emissions, a waveform generator, a current- or voltage-controlled amplifier, and parallel electrode pairs that are inserted into assay plate wells. Under integrated computer control, this instrument passes user-programmed electrical stimulus protocols to cells within the wells of the microtiter plate.
16-20 hours prior to running the assay on E-VIPR, HEK cells expressing a truncated form of human Nav 1.8 with full channel activity were seeded into microtiter 384-well plates, pre-coated with matrigel, at a density of 25,000 cells per well. 2.5-5% KIR2.1 Bacmam virus was added to the final cell suspension before seeding into cell plates. HEK cells were grown in Dulbecco's Modified Eagle's Medium (DMEM) supplemented with 10% FBS (Fetal Bovine Serum, qualified; Sigma #F4135), 1% NEAA (Non-Essential Amino Acids, Gibco #11140), 1% HEPES (Gibco #15630), 1% Pen-Strep (Penicillin-Streptomycin; Gibco #15140) and 5 μg/ml Blasticidin (Gibco #R^210-01). Cells were expanded in vented cap cell culture flasks, with 90-95% humidity and 5% CO2.
100 mg/mL Pluronic F-127 (Sigma #P2443), in dry DMSO
Compound Plates: Corning 384-well Polypropylene Round Bottom #3656
Cell Plates: 384-well tissue culture treated plates (Greiner #781091-2B)
2.5-5% KIR 2.1 Bacmam virus (produced in-house), prepared as described in Section 3.3 of J. A. Fornwald et al., Gene Expression in Mammalian Cells Using BacMam, a Modified Baculovirus System, 1350 Methods in Molecular Biology 95-116 (2016), the entire contents of which are incorporated by reference. The concentration used can be dependent on viral titer of each batch.
5 mM DiSBAC6(3), a voltage sensitive oxonol acceptor (CAS number 169211-44-3; 5-[3-(1,3-dihexylhexahydro-4,6-dioxo-2-thioxo-5-pyrimidinyl)-2-propen-1-ylidene]-1,3-dihexyldihydro-2-thioxo-4,6 (1H,5H)-pyrimidinedione), in dry DMSO. The preparation of DiSBAC6(3) is analogous to that of DiSBAC4(3) as described in Voltage Sensing by Fluorescence Resonance Energy Transfer in Single Cells, Gonzalez, J. E. and Tsien, R. Y. (1995) Biophys. J. 69, 1272-1280.
5 mM CC2-DMPE, a commercially available membrane-bound coumarin phospholipid FRET donor (ThermoFisher Scientific catalog number K1017, CAS number 393782-57-5; tetradecanoic acid, 1,1′-[(1R)-1-[8-(6-chloro-7-hydroxy-2-oxo-2H-1-benzopyran-3-yl)-3-hydroxy-3-oxido-8-oxo-2,4-dioxa-7-aza-3-phosphaoct-1-yl]-1,2-ethanediyl] ester) was prepared in dry DMSO. See also, Improved indicators of cell membrane potential that use fluorescence resonance energy transfer, Gonzalez, J. E. and Tsien, R. Y. (1997) Chem. Biol. 4, 269-277.
Voltage Assay Background Suppression Compound (VABSC-1) is prepared in H2O (89-363 mM, range used to maintain solubility)
Human Serum (HS, Millipore #S1P1-01KL, or Sigma SLBR5469V and SLBR5470V as a 50%/50% mixture, for 25% assay final concentration)
• Sodium Chloride 160 mM (9.35 g/L), Potassium Chloride, 4.5 mM (0.335 g/L), Glucose 10 mM (1.8 g/L), Magnesium Chloride (Anhydrous) 1 mM (0.095 g/L), Calcium Chloride 2 mM (0.222 g/L), HEPES 10 mM (2.38 g/L) in water. […]

[1] = compound numbers without "*" (not marked as run in the presence of human serum)
[2] = assay performed in the presence of human serum (compound numbers followed by "*")

Chain of human Nav 1.8 (Q9Y5Y9 126-399 limits assumed): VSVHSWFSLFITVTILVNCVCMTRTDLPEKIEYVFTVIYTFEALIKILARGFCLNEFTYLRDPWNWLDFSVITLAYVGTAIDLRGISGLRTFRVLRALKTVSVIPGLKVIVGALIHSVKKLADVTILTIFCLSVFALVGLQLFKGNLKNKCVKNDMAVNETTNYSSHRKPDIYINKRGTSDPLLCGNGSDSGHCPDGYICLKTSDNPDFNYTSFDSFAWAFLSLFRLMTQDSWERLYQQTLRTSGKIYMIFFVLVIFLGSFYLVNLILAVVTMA
Chain of human Nav 1.8 (Q9Y5Y9 660-890 limits assumed): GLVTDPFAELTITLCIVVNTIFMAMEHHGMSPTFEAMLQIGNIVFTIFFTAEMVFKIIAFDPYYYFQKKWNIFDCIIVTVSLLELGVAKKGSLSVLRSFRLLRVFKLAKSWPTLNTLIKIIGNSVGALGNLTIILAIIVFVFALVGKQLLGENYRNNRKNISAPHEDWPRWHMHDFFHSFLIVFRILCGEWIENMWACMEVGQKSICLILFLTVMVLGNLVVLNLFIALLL
Chain of human Nav 1.8 (Q9Y5Y9 1148-1722 limits assumed): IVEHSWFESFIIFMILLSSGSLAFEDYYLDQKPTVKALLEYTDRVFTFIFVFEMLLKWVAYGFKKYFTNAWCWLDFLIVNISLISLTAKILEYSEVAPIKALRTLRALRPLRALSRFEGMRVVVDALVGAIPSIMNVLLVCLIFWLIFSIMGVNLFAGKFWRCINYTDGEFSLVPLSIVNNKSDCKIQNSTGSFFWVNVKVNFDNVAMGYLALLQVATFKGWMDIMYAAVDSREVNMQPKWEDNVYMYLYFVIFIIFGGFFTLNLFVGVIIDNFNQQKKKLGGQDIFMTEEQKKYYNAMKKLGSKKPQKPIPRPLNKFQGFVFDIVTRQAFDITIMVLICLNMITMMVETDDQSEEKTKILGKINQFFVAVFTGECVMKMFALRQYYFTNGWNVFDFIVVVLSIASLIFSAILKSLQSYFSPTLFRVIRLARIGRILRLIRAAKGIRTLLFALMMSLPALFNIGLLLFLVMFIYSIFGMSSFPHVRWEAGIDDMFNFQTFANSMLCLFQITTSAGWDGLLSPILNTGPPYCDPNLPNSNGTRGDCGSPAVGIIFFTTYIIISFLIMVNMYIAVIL

SMILES | IC50 [1] [nM] | IC50 [2] [nM]
COCc1c([C@H]2[C@H](C(=O)Nc3ccnc(C(N)=O)c3)O[C@@](C)(C(F)(F)F)[C@H]2C)ccc(F)c1F (racemic) [Compound 145, rac-4-((2R,3S,4S,5R)-3-(3,4-difluoro-2-(methoxymethyl)phenyl)-4,5-dimethyl-5-(trifluoromethyl)tetrahydrofuran-2-carboxamido)picolinamide] | < 10 | 
CC(C)(O)COc1c([C@@H]2C[C@](C)(C(F)(F)F)O[C@H]2C(=O)Nc2ccnc(C(N)=O)c2)ccc(F)c1F (relative stereo) [Compound 32, rel-4-((2R,3S,5R)-3-(3,4-difluoro-2-(2-hydroxy-2-methylpropoxy)phenyl)-5-methyl-5-(trifluoromethyl)tetrahydrofuran-2-carboxamido) picolinamide] | 100 to 1000 | 
C[C@]1(C(F)(F)F)C[C@@H](c2ccc(F)c(F)c2OCCO)[C@H](C(=O)Nc2ccnc(C(N)=O)c2)O1 (relative stereo) [Compound 33, rel-4-((2R,3S,5R)-3-(3,4-difluoro-2-(2-hydroxyethoxy)phenyl)-5-methyl-5-(trifluoromethyl)tetrahydrofuran-2-carboxamido)picolinamide] | 10 to 100 | 
COCCOc1c([C@@H]2C[C@](C)(C(F)(F)F)O[C@H]2C(=O)Nc2ccnc(C(N)=O)c2)ccc(F)c1F (relative stereo) [Compound 34, rel-4-((2R,3S,5R)-3-(3,4-difluoro-2-(2-methoxyethoxy)phenyl)-5-methyl-5-(trifluoromethyl)tetrahydrofuran-2-carboxamido)picolinamide] | < 10 | 
C[C@]1(C(F)(F)F)C[C@@H](c2ccc(F)c(F)c2OCCCO)[C@H](C(=O)Nc2ccnc(C(N)=O)c2)O1 (relative stereo) [Compound 35, rel-4-((2R,3S,5R)-3-(3,4-difluoro-2-(3-hydroxypropoxy)phenyl)-5-methyl-5-(trifluoromethyl)tetrahydrofuran-2-carboxamido)picolinamide] |  | 100 to 1000
C[C@H]1[C@@H](c2ccc(F)c(F)c2OCCN2C[C@@H]3C[C@H]2CO3)[C@H](C(=O)Nc2ccnc(C(N)=O)c2)O[C@@]1(C)C(F)(F)F (relative stereo) [Compound 46, rel-4-((2R*,3S*,4S*,5R*)-3-(2-(2-((1S,4S)-2-oxa-5-azabicyclo[2.2.1]heptan-5-yl)ethoxy)-3,4-difluorophenyl)-4,5-dimethyl-5-(trifluoromethyl)tetrahydrofuran-2-carboxamido)picolinamide] | < 10 | 
C[C@H]1[C@@H](c2ccc(F)c(F)c2OCCN2C[C@H]3C[C@@H]2CO3)[C@H](C(=O)Nc2ccnc(C(N)=O)c2)O[C@@]1(C)C(F)(F)F (relative stereo) [Compound 47, rel-4-((2R*,3S*,4S*,5R*)-3-(2-(2-((1R,4R)-2-oxa-5-azabicyclo[2.2.1]heptan-5-yl)ethoxy)-3,4-difluorophenyl)-4,5-dimethyl-5-(trifluoromethyl)tetrahydrofuran-2-carboxamido)picolinamide] | 10 to 100 | 
C[C@H]1[C@@H](c2ccc(F)c(F)c2OC[C@H]2CC[C@H]2O)[C@H](C(=O)Nc2ccnc(C(N)=O)c2)O[C@@]1(C)C(F)(F)F (relative stereo) [Compound 99, rel-4-((2R*,3S*,4S*,5R*)-3-(3,4-difluoro-2-(((1R,2R)-2-hydroxycyclobutyl)methoxy)phenyl)-4,5-dimethyl-5-(trifluoromethyl)tetrahydrofuran-2-carboxamido)picolinamide] | 10 to 100 | 
COCCOc1c([C@H]2[C@H](C(=O)Nc3ccnc(C(N)=O)n3)O[C@@](C)(C(F)(F)F)[C@H]2C)ccc(F)c1C (single isomer, unassigned) [Compound 3] | < 10 | 
COCCOc1c([C@@H]2[C@@H](C(=O)Nc3ccnc(C(N)=O)n3)O[C@](C)(C(F)(F)F)[C@@H]2C)ccc(F)c1C (single isomer, unassigned) [Compound 4] | ≥ 1000 | 
COc1c(C2CC3(COC3)OC2C(=O)Nc2ccnc(C(N)=O)c2)ccc(F)c1C (single isomer, unassigned) [Compound 24] | ≥ 1000 | 
COCC1(C)CC(c2ccc(F)c(F)c2OC)C(C(=O)Nc2ccnc(C(N)=O)c2)O1 (single isomer, unassigned) [Compound 27] | ≥ 1000 | 
COCC1(C)CC(c2ccc(F)c(F)c2OC)C(C(=O)Nc2ccnc(C(N)=O)c2)O1 (single isomer, unassigned) [Compound 28] | 100 to 1000 | 
COCC1(C)CC(c2ccc(F)c(F)c2OC)C(C(=O)Nc2ccnc(C(N)=O)c2)O1 (single isomer, unassigned) [Compound 29] | ≥ 1000 | 
COCC[C@]1(C)C[C@@H](c2ccc(F)c(F)c2OC)[C@H](C(=O)Nc2ccnc(C(N)=O)c2)O1 (single isomer, unassigned) [Compound 30] |  | ≥ 1000
COCC[C@@]1(C)C[C@H](c2ccc(F)c(F)c2OC)[C@@H](C(=O)Nc2ccnc(C(N)=O)c2)O1 (single isomer, unassigned) [Compound 31] | 100 to 1000 | 
Cc1c(F)ccc([C@H]2C[C@@](C)(C(F)(F)F)O[C@@H]2C(=O)Nc2ccnc(C(N)=O)c2)c1OCCO (single isomer, unassigned) [Compound 36] |  | ≥ 1000
Cc1c(F)ccc([C@@H]2C[C@](C)(C(F)(F)F)O[C@H]2C(=O)Nc2ccnc(C(N)=O)c2)c1OCCO (single isomer, unassigned) [Compound 37] |  | 100 to 1000
C[C@H]1[C@@H](c2ccc(F)c(F)c2OC[C@H]2CCO2)[C@H](C(=O)Nc2ccnc(C(N)=O)c2)O[C@@]1(C)C(F)(F)F (single isomer, unassigned) [Compound 59, rel-4-((2R*,3S*,4S*,5R*)-3-(3,4-difluoro-2-((oxetan-2-yl)methoxy)phenyl)-4,5-dimethyl-5-(trifluoromethyl)tetrahydrofuran-2-carboxamido)picolinamide] | < 10 | 
C[C@H]1[C@@H](c2ccc(F)c(F)c2OCC2CCOC2)[C@H](C(=O)Nc2ccnc(C(N)=O)c2)O[C@@]1(C)C(F)(F)F (single isomer, unassigned) [Compound 67] | < 10 | 
CC[C@H](CO)COc1c([C@H]2[C@H](C(=O)Nc3ccnc(C(N)=O)c3)O[C@@](C)(C(F)(F)F)[C@H]2C)ccc(F)c1F (single isomer, unassigned) [Compound 92, rel-4-((2R*,3S*,4S*,5R*)-3-(3,4-difluoro-2-(2-(hydroxymethyl)butoxy)phenyl)-4,5-dimethyl-5-(trifluoromethyl)tetrahydrofuran-2-carboxamido)picolinamide] | 10 to 100 | 
CC[C@H](CO)COc1c([C@H]2[C@H](C(=O)Nc3ccnc(C(N)=O)c3)O[C@@](C)(C(F)(F)F)[C@H]2C)ccc(F)c1F (single isomer, unassigned) [Compound 93, rel-4-((2R*,3S*,4S*,5R*)-3-(3,4-difluoro-2-(2-(hydroxymethyl)butoxy)phenyl)-4,5-dimethyl-5-(trifluoromethyl)tetrahydrofuran-2-carboxamido)picolinamide] | < 10 | 
